{
  "source": "patent US6896892B2",
  "about": "“Insecticide-impregnated fabric and method of production” (The United States of America as represented by the …, priority 2000, dated 2005)",
  "key": {"[1]": {"test_system": "Anopheles gambiae mosquitoes (Kisumu [KIS] strain)", "assay": "WHO cone bioassay of impregnated netting, knock-down and mortality, KIS strain", "type": "in vivo", "details": "nets 500 mg/m^2 permethrin alone; after five wash/rinse cycles", "procedure": "(§1) Insectary-reared and sugar-fed Anopheles gambiae mosquitoes (Kisumu [KIS], G3 and Asembo [AB] strains), 3-4 days old, were tested for susceptibility (or resistance) to permethrin-impregnated nets, using the WHO adult mosquito susceptibility test kit. About 20 mosquitoes were used in each assay. Cohort mosquitoes were then used to bioassay the pyrethroid-impregnated netting samples using the WHO cone bioassay with a 3 minute exposure time. During an assay, the cone was held on its side, which placed the net sample in a perpendicular or vertical position with respect to the floor, as is the case when testing an actual hanging net. In each assay 7-12 mosquitoes were used with 3-4 such assays run for each experiment. After exposure for the prescribed time, mortality was determined after the mosquitoes were held overnight (24 hours) in clean cartons with sugar water for nourishment. Final mortality was corrected for control mortality. Knock-down was defined as the number of mosquitoes alive or dead, present on the floor of the carton 30 minutes after exposure. Knock-down is considered to be a more accurate measurement of insecticide efficacy because in the wild any mosquito that falls to the ground serves almost immediately as food for other insects (e.g., ants). Temperature and humidity conducive to the survival of the mosquitoes were maintained."}, "[2]": {"test_system": "Anopheles gambiae mosquitoes (G3 strain)", "assay": "WHO cone bioassay of impregnated netting, knock-down and mortality, G3 strain", "type": "in vivo", "details": "nets 500 mg/m^2 permethrin alone; two wash/rinse cycles", "procedure": "as §1"}, "[3]": {"test_system": "Anopheles gambiae mosquitoes (Asembo [AB] strain)", "assay": "WHO cone bioassay of impregnated netting, knock-down and mortality, AB strain", "type": "in vivo", "details": "nets 500 mg/m^2 permethrin alone; after one wash/rinse cycle", "procedure": "as §1"}, "[4]": {"test_system": "Anopheles gambiae mosquitoes (Kisumu [KIS], G3 and Asembo [AB] strains)", "assay": "WHO cone bioassay of impregnated netting, all strains", "type": "in vivo", "procedure": "as §1"}, "[5]": {"assay": "Wash/rinse cycles of netting samples, permethrin removed per cycle", "type": "physicochemical", "procedure": "Netting samples were repeatedly washed and each wash and rinse solution was analyzed to determine the concentration of impregnated insecticide removed during each wash cycle. After several wash/rinse cycles, when the insecticidal efficacy had become depleted, the residual insecticide on the net was also determined.\nA volume of 100 ml of a standardized detergent (2% aqueous sodium dodecyl sulfate [SDS]) was added to a 4 ounce wide mouth screw-cap bottle. An impregnated net sample (bioassayed beforehand) was folded twice and placed into the SDS solution, and the cap was applied and the bottle was shaken for 5 minutes on a mechanical shaker. After removing the cap, the net sample was removed, wrung out and placed in a 4 ounce bottle containing 100 ml of de-ionized water and shaken for five minutes, after which, the sample was removed, wrung out and left to dry overnight. The sample was rebioassayed the next day and at later times. To each wash solution was added a volume of 100 μl of the appropriate internal standard (IS) solution in acetone, and the contents were vigorously shaken by hand. To the rinse solution was added a 0.5 g quantity of dry SDS, and the contents were shaken to dissolve the SDS. Then a 100 μl volume of IS was added, and the contents were vigorously shaken. Two ml of each wash and rinse solution was then transferred to a 4 ml screw-cap vial, 3 ml of ethyl acetate were added and the contents were shaken. After centrifugation to clarify the ethyl acetate layer, about 1 ml of the ethyl acetate layer of each extract was transferred to an autosampler vial and injected onto the GC system described above to determine insecticide content.\nFor washing experiments involving permethrin, the wash and rinse solutions were injected directly onto a reversed-phase, high-performance liquid chromatographic system with ultraviolet (UV) detection, to determine the permethrin content of the solutions."}},
  "note": "“Also recorded” adds a separate entry of the source.",
  "data": [
    {"smiles": "CC1(C)C(C=C(Cl)Cl)C1C(=O)OCc1cccc(Oc2ccccc2)c1", "note": "(stereo not drawn) [Permethrin Alone, permethrin]", "values": [
      {"measurement": "knock-down", "setting": "[1]", "result": "less than 50%"},
      {"measurement": "mortality", "setting": "[1]", "result": "approximately 20%"},
      {"measurement": "knock-down", "setting": "[2]", "result": "approximately 20%"},
      {"measurement": "mortality", "setting": "[2]", "result": "~10", "unit": "%"},
      {"measurement": "effectiveness (knock-down and mortality)", "setting": "[3]", "result": "completely ineffective; also recorded: all effectiveness with this strain was lost"},
      {"measurement": "effectiveness against all strains", "setting": "[4]; nets 500 mg/m^2 permethrin alone, six wash/rinse cycles", "result": "completely disappeared"},
      {"measurement": "effectiveness against all strains", "setting": "[4]; nets 1000 mg/m^2 permethrin alone, after four washings", "result": "lost most of their effectiveness"},
      {"measurement": "insecticide lost after the first washing", "setting": "[5]; nets 500 or 1000 mg/m^2 permethrin alone", "result": "63-90%"},
      {"measurement": "Amt (%) washed off during a W/R cycle", "setting": "[5]; permethrin alone 500 mg/m^2, W/R = 1", "result": 63.0, "unit": "%"},
      {"measurement": "Amt (%) washed off during a W/R cycle", "setting": "[5]; permethrin alone 500 mg/m^2, W/R = 2", "result": 4.3, "unit": "%"},
      {"measurement": "Amt (%) washed off during a W/R cycle", "setting": "[5]; permethrin alone 500 mg/m^2, W/R = 3", "result": 4.7, "unit": "%"},
      {"measurement": "Amt (%) washed off during a W/R cycle", "setting": "[5]; permethrin alone 500 mg/m^2, W/R = 4", "result": 17.5, "unit": "%"},
      {"measurement": "Amt (%) washed off during a W/R cycle", "setting": "[5]; permethrin alone 500 mg/m^2, W/R = 5", "result": 7.6, "unit": "%"},
      {"measurement": "Amt (%) washed off during a W/R cycle", "setting": "[5]; permethrin alone 500 mg/m^2, W/R = 6", "result": 2.8, "unit": "%"},
      {"measurement": "Amt (%) washed off during a W/R cycle", "setting": "[5]; permethrin alone 1000 mg/m^2, W/R = 1", "result": 90.7, "unit": "%"},
      {"measurement": "Amt (%) washed off during a W/R cycle", "setting": "[5]; permethrin alone 1000 mg/m^2, W/R = 2", "result": 2.4, "unit": "%"},
      {"measurement": "Amt (%) washed off during a W/R cycle", "setting": "[5]; permethrin alone 1000 mg/m^2, W/R = 3", "result": 0.9, "unit": "%"},
      {"measurement": "Amt (%) washed off during a W/R cycle", "setting": "[5]; permethrin alone 1000 mg/m^2, W/R = 4", "result": 0.9, "unit": "%"}
    ]}
  ]
}
